Like-named read-outs stand apart in the source and are kept apart here.
Columns and labels:
[1] = molecular target: Vpu protein (Human immunodeficiency virus type 1 group M subtype B, UniProt P05919); conditions: halo of growth score between zero and six; XL1-blue E. coli with pPL-Vpu, no adenine, 37° C.
[2] = molecular target: 229E-CoV E-protein (Human coronavirus 229E, UniProt P19741); test: Bacterial bio-assay for 229E-CoV E-protein; conditions: halo of growth score; E. coli expressing E protein at 37° C.
[3] = molecular target: SARS-CoV E protein (Severe acute respiratory syndrome coronavirus, UniProt P59637); type: cell-based
[4] = system: MHV (strain MHV-A59); conditions: L929 cells

| SMILES | Vpu Inhibition (score/# of times tested) [1] | 229E E protein Inhibition (score) [2] [score] | SARS E protein Inhibition (score/# of times tested) [3] | Percent reduction in Plaque number/# experiments ([4]; 1 uM) | Percent reduction in Plaque number/# experiments ([4]; 10 uM) | Percent reduction in Plaque number/# experiments ([4]; 20 uM) | Toxic (noted in place of plaque reduction) ([4]; 20 uM) |
| --- | --- | --- | --- | --- | --- | --- | --- |
| NC(N)=NC(=O)c1cccc2ccccc12 [1-napthoylguanidine] | 0.3/2 score | 1.9 | 1.32/3 score | 2/3% | 62/3% | 71/3% | – |
| Cc1cc(C)c(C)c(/C=C/C(=O)NC(=N)N)c1C [2,3,5,6,-tetramethylcinnamoylguanidine] | 1.6/2 score | 0.3 | 1.00/1 score | 0/1% | 68/2% | – | – |
| N=C(N)NC(=O)/C=C/c1cccc(F)c1F [2,3-difluorocinnamoylguanidine] | 1.56/2 score | 3.3 | 4.50/1 score | 64/2% | 92/3% | – | Toxic |
| Cc1cccc(/C=C/C(=O)NC(=N)N)c1C [2,3-dimethylcinnamoylguanidine] | 3.1/2 score | 0.5 | – | 34/1% | 79/2% | 95/1% | – |
| Cc1cc(C)c(/C=C/C(=O)NC(=N)N)c(C)c1 [2,4,6-trimethylcinnamoylguanidine] | 1.4/2 score | 0.9 | – | 27/2% | 61/3% | 91/2% | – |
| Cc1ccc(C)c(/C=C/C(=O)NC(=N)N)c1 [2,5-dimethylcinnamoylguanidine] | 2.69/2 score | 1.6 | 3.63/1 score | 39/3% | 91/3% | 95/3% | – |
| N=C(N)NC(=O)/C=C/c1ccccc1C(F)(F)F [2-(trifluoromethyl)cinnamoylguanidine] | 2.4/2 score | 1.5 | 1.38/1 score | 13/1% | 15/1% | 19/1% | – |
| N=C(N)NC(=O)/C=C/c1ccccc1C1CCCCC1 [2-cyclohexylcinnamoylguanidine] | 0.8/2 score | 0.8 | 1.83/1 score | 16/1% | 74/2% | 100/1% | – |
| CCOc1ccccc1/C=C/C(=O)NC(=N)N [2-ethoxycinnamoylguanidine] | 2.25/2 score | 0.6 | 2.57/1 score | 48/2% | 85/3% | 93/2% | – |
| CCc1ccccc1/C=C/C(=O)NC(=N)N [2-ethylcinnamoylguanidine] | 2.75/2 score | 0.8 | 1.50/1 score | 34/1% | 81/2% | 96/1% | – |
| N=C(N)NC(=O)/C=C/c1ccccc1F [2-fluorocinnamoylguanidine] | 2.1/2 score | 0.4 | 0.63/1 score | – | 73/1% | 76/1% | – |
| Cc1ccccc1/C=C/C(=O)NC(=N)N [2-methylcinnamoylguanidine] | 3.1/2 score | 0.5 | 1.00/1 score | 20/1% | 82/1% | 91/1% | – |
| NC(N)=NC(=O)c1ccc2ccccc2c1 [2-napthoylguanidine] | 2.7/11 score | 0.3 | 1.38/2 score | 34/2% | 36/2% | 67/2% | – |
